Laboratory results reported in the SangsterLogP compilation.

assay: method code SF-AS, from PMID: 5136171; details: not given

Structure (SMILES) | logP
CCOC(=O)c1cnc2cc(OCCOC)c(OC(C)C)cc2c1O | 1.86
CCOC(=O)c1cnc2cc(OCCOC)c(OCC(C)C)cc2c1O | 1.84
CCCCOc1cc2c(O)c(C(=O)OCC)cnc2cc1OCCOC | 1.72
CCCOc1cc2c(O)c(C(=O)OCC)cnc2cc1OCCOC | 1.7

assay: not given; details: not given

Structure (SMILES) | logP
Cc1c(O)cc(C(=O)Cc2ccccc2)oc1=O | 0.78
O=C(Cc1cc(O)cc(=O)o1)c1ccccc1 | 0.43
O=c1cc(O)cco1 | 0.5

assay: not given; details: not given; remark: another data set of the same source

Structure (SMILES) | logP
O=C(O)c1[nH]c2cc(Cl)cc(Cl)c2c1CN1CC(=O)N(c2ccccc2OCCF)C1=O | 1.51
O=C(O)c1[nH]c2cc(Cl)cc(Cl)c2c1CN1CC(=O)N(c2ccc(OCCF)c(Cl)c2)C1=O | 2.53
COc1ccc(N2C(=O)CN(Cc3c(C(=O)O)[nH]c4cc(Cl)cc(Cl)c34)C2=O)cc1 | 2.26
O=C(O)c1[nH]c2cc(Cl)cc(Cl)c2c1CN1CC(=O)N(c2ccc(OCCF)cc2)C1=O | 2.07

assay: not given; details: not given; remark: another data set of the same source

Structure (SMILES) | logP
CC(=O)C(C(=O)ON=C(C)C12CC3CC(CC(C3)C1)C2)c1ccccc1 (centres undefined) | 4.64
CC(=O)OC(C(=O)ON=C1C2CC3CC(C2)CC1C3)c1ccccc1 (centres undefined) | 3.28
CC(=O)OC(C(=O)NC12CC3CC(CC(C3)C1)C2)c1ccccc1 (centres undefined) | 3.21
CCC(=O)OC(C(=O)NC12CC3CC(CC(C3)C1)C2)c1ccccc1 (centres undefined) | 3.72

assay: not given; details: not given; remark: another data set of the same source

Structure (SMILES) | logP
O=C1c2c(O)cccc2C(C(=O)Cc2ccc3ccccc3c2)c2cccc(O)c21 | 4.71
O=C1c2c(O)cccc2C(C(=O)CC2CCCCC2)c2cccc(O)c21 | 4.97
O=C1c2c(O)cccc2C(C(=O)Cc2cccc3ccccc23)c2cccc(O)c21 | 4.61
O=C1c2c(O)cccc2C(C(=O)C(c2ccccc2)c2ccccc2)c2cccc(O)c21 | 4.6

assay: method code SF-AS, from DOI: 10.1016/0045-6535(83)90122-4; details: not given

Structure (SMILES) | logP
O=[N+]([O-])c1c(Cl)c(Cl)cc(Cl)c1Cl | 3.89
O=[N+]([O-])c1ccc(Cl)c(Cl)c1 | 3.12

assay: not given; details: not given; remark: another data set of the same source

Structure (SMILES) | logP
COC(=O)C1=C(C)NC(C)=C(C(=O)OC/C=C/c2ccccc2)C1c1cccc([N+](=O)[O-])c1 (centres undefined) | 4.26
CCOC(=O)C1=C(C)NC(C)=C(C(=O)OC)C1c1cccc(Cl)c1Cl (centres undefined) | 3.65
CC1=C(C(=O)OC(C)C)C(c2cccc([N+](=O)[O-])c2)C(C(=O)OC2CN(C(c3ccccc3)c3ccccc3)C2)=C(N)N1 (centres undefined) | 5.18
CCOC(=O)C1=C(C)NC(C)=C(C(=O)OC)C1c1cccc([N+](=O)[O-])c1 (centres undefined) | 2.88

assay: method code SF-HPLC, from DOI: 10.1016/0378-5173(92)90116-j; details: pH 7.4

Structure (SMILES) | logD
CCC(C(=O)OCCCCCOC(=O)C(CC)C(CO)Cc1cncn1C)C(CO)Cc1cncn1C (centres undefined) | 1.57
CCC(C(=O)OCCCCCCCOC(=O)C(CC)C(CO)Cc1cncn1C)C(CO)Cc1cncn1C (centres undefined) | 2.67
CCC(C(=O)OCc1ccccc1COC(=O)C(CC)C(CO)Cc1cncn1C)C(CO)Cc1cncn1C (centres undefined) | 2.03
CCC(C(=O)OCc1ccc(COC(=O)C(CC)C(CO)Cc2cncn2C)cc1)C(CO)Cc1cncn1C (centres undefined) | 2.18

assay: method code SF-AS, from DOI: 10.1007/bf01964075; details: pH 2.1

Structure (SMILES) | logD
CNC(=O)CNC(C)=O | -1.56
CNC(=O)C(C)NC(C)=O (racemic) | -1.21
CNC(=O)[C@H](CC(C)C)NC(C)=O | 0.14

assay: not given; details: not given; remark: another data set of the same source

Structure (SMILES) | logP
CCCCCCCCCCCCOC(=O)N(C)SN(C)C(=O)Oc1ccc2c(c1)OCO2 | 7.39
CC(C)Oc1ccccc1OC(=O)N(C)SN(C)C(=O)Oc1ccc2c(c1)OCO2 | 2.7
CCCCCCCCOC(=O)N(C)SN(C)C(=O)Oc1ccc2c(c1)OCO2 | 4.67
CCCCCCCCCCCCCCCCOC(=O)N(C)SN(C)C(=O)Oc1ccc2c(c1)OCO2 | 10.5

assay: method code SF-AS, from DOI: 10.1002/jps.2600690614, PMID: 7205578; details: not given

Structure (SMILES) | logP
CN(C)CCN(Cc1cccs1)c1ccccn1 | 2.87
CCN1CCN(CC)C1=S | 1.13
S=C1NCCCN1 | -0.68

assay: not given; details: not given; remark: another data set of the same source

Structure (SMILES) | logP
Cc1cc(C(=O)N2Cc3ccc(C(=O)N(CCO)CCO)n3Cc3ccccc32)ccc1-c1cc(F)ccc1C(F)(F)F | 3.31
Cc1cc(C(=O)N2Cc3ccc(C(=O)N4CCOCC4)n3Cc3ccccc32)ccc1-c1ccccc1CCF | 4.08
Cc1cc(C(=O)N2Cc3ccc(C(=O)N(CCO)CCO)n3Cc3ccccc32)ccc1-c1ccccc1C(F)(F)F | 3.21
Cc1cc(C(=O)N2Cc3ccc(C(=O)NCCF)n3Cc3ccccc32)ccc1-c1ccccc1C(F)(F)F | 4.18

assay: not given; details: not given; remark: another data set of the same source

Structure (SMILES) | logP
CCCCC(c1c(O)c2ccccc2oc1=O)c1c(O)c2ccccc2oc1=O | 2.69
CC(c1c(O)c2ccccc2oc1=O)c1c(O)c2ccccc2oc1=O | 0.43
CCCC(c1c(O)c2ccccc2oc1=O)c1c(O)c2ccccc2oc1=O | 2.31
O=c1oc2ccccc2c(O)c1Cc1c(O)c2ccccc2oc1=O | 1.83

assay: not given; details: not given; remark: another data set of the same source

Structure (SMILES) | logP
CC(C)C12CCC(C)(CC1)C1C(=O)N(CCCCN3CCN(c4ccc5ccccc5n4)CC3)C(=O)C12 (centres undefined) | 6.59
O=C1C2C3CCC(C3)C2C(=O)N1CCCCN1CCN(c2ccc3ccccc3n2)CC1 (centres undefined) | 3.64
CC(C)C12C=CC(C)(CC1)C1C(=O)N(CCCCN3CCN(c4ccc5ccccc5n4)CC3)C(=O)C12 (centres undefined) | 6.3
O=C1C2C3C=CC(CC3)C2C(=O)N1CCCCN1CCN(c2ccc3ccccc3n2)CC1 (centres undefined) | 3.83

assay: method code SF-AS, from DOI: 10.1248/cpb.26.2832; details: not given

Structure (SMILES) | logP
CCCCC(=O)OC1(C(=O)CO)C(C)CC2C3CCC4=CC(=O)C=CC4(C)C3(F)C(O)CC21C (centres undefined) | 3.49
CC(=O)OCC(=O)[C@@]1(O)CC[C@H]2[C@@H]3CCC4=CC(=O)C=C[C@]4(C)[C@H]3[C@@H](O)C[C@@]21C | 2.4
CC(=O)OCC(=O)[C@@]1(O)[C@H](OC(C)=O)C[C@H]2[C@@H]3CCC4=CC(=O)C=C[C@]4(C)[C@@]3(F)[C@@H](O)C[C@@]21C | 1.92
CC(=O)OCC(=O)[C@@]1(O)CC[C@H]2[C@@H]3CCC4=CC(=O)CC[C@]4(C)[C@H]3C(=O)C[C@@]21C | 2.1

assay: method code SF-HPLC, from DOI: 10.1016/0378-5173(85)90011-0; details: not given

Structure (SMILES) | logP
CC(=O)n1ncc2c(=O)[nH]cnc21 | -0.35
CCC(=O)n1ncc2c(=O)[nH]cnc21 | 0.3

same assay, conditions: pH 7.4

Structure (SMILES) | logD
O=c1[nH]cnc2[nH]ncc12 | -0.55

assay: method code SF-GLC, from DOI: 10.1021/jm00240a002, PMID: 1151965; details: not given

Structure (SMILES) | logP
COC(F)(F)C(Cl)Cl | 2.21
FC(F)(F)C(F)(F)F | 2
FC(F)(F)C(Cl)Br (centres undefined) | 2.3

assay: not given; details: not given; remark: another data set of the same source

Structure (SMILES) | logP
COc1ccc(CNC(=O)c2cc(-c3cncc(Cl)c3)cnc2-c2ccccn2)nc1OC | 3.2
COc1ccccc1C(=O)N1CCCN(c2nc3ccc(Cl)cc3s2)CC1 | 4.98
Cn1c(CCC(=O)N2CCC[C@H]2C(=O)Nc2ccccc2-c2ccccc2)nc2ccccc21 | 3.79
COc1nc(C)ncc1OCC1(c2cccc(F)c2)CC1C(=O)Nc1ccc(F)cn1 (centres undefined) | 3.65

assay: not given; details: not given; remark: another data set of the same source

Structure (SMILES) | logP
O=[N+]([O-])c1c(Cl)c(Cl)c(Cl)c(Cl)c1Cl | 4.64
Clc1ccc(Cl)c(Cl)c1 | 4.03
NC(=O)c1c(Cl)cccc1Cl | 1.25

assay: method code SF-NMR, from DOI: 10.1002/jps.2600751016, PMID: 3795031; details: not given

Structure (SMILES) | logP
CC(CO)CC(F)(F)F (centres undefined) | 1.39
CCC(O)CCC(F)(F)F (centres undefined) | 1.7
CC(CCO)C(F)(F)F (centres undefined) | 1.37

assay: method code SF-GLC, from DOI: 10.1016/s0022-3565(25)30310-1, PMID: 1181405; details: pH 7.4

Structure (SMILES) | logD
CCCOC(=O)NC | 0.95
CNC(=O)Oc1cc(C)c(C)c(C)c1 | 2.66
CNC(=O)OC | -0.06

assay: not given; details: not given; remark: another data set of the same source

Structure (SMILES) | logP
CCCCCC(=O)OC1CC(n2cc(C=CBr)c(=O)[nH]c2=O)OC1COP1(=O)OCc2cccc(C)c2O1 (centres undefined) | 2.6
CCC(=O)OC1CC(n2cc(C=CBr)c(=O)[nH]c2=O)OC1COP1(=O)OCc2cccc(C)c2O1 (centres undefined) | 2.3
Cc1cccc2c1OP(=O)(OCC1OC(n3cc(C=CBr)c(=O)[nH]c3=O)CC1OC(=O)C(C)(C)C)OC2 (centres undefined) | 3
CCCCCCCCCC(=O)OC1CC(n2cc(C=CBr)c(=O)[nH]c2=O)OC1COP1(=O)OCc2cccc(C)c2O1 (centres undefined) | 2.8

assay: not given; details: not given; remark: another data set of the same source

Structure (SMILES) | logP
Nc1nc[nH]n1 | -0.87
CS(=O)(=O)c1ccc(OCC(=O)O)cc1 | 0.06
CCOC(=O)COc1cccc2ccccc12 | 2.9

assay: method code SF, from DOI: 10.1016/0360-3016(92)90876-j, PMID: 1735696; details: pH 7.4

Structure (SMILES) | logD
O=[N+]([O-])c1nccn1CC=NO | -0.43
O=C(Cn1ccnc1[N+](=O)[O-])NCCO | -1.32
CC(=O)O/N=C/Cn1ccnc1[N+](=O)[O-] | -0.47
